Results on eleven molecules are retold here after patent publication US12404285B2, “KRAS G12D proteolysis targeting chimeras” (PAQ Therapeutics Inc., priority 2022, dated 2025).

Each structure is given as a SMILES string.

For the assay, the target named is T1, KRAS in AGS cells (KRAS G12D mutant cell line) or LS180 cells (KRAS G12D mutant cell line) (Homo sapiens, UniProt P01116, G12D).
T1 construct: CRL-187 (LS180) (so in the source); host or cells: AGS or LS180 cells
T1 sequence (P01116 1-188 isoform P01116-2 G12D): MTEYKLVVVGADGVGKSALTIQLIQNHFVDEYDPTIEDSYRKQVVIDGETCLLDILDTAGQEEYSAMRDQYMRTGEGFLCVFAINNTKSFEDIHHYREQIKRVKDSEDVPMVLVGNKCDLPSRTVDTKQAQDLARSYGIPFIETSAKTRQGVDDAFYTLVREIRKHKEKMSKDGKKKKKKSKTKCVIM
The assay can be described thus: KRAS Western Blot (WB) assay. In kind it is cell-based. The settings on record: KRAS degradation, 24 hours incubation, normalized to β-actin. How it is done: Day 1. Seeded AGS cells (KRAS G12D mutant cell line, ATCC, CRL-1739) or LS180 cells (KRAS G12D mutant cell line, ATCC, CRL-187) into 6-well plates (cell density: 3×10^5 cells/well/2 ml medium) in Ham's F-12 medium (Invitrogen, 11765-054) or Eagle's Minimum Essential Medium (ATCC, 30-2003) and incubated overnight at 37° C. and 5% CO2.
Day 2. Aspirated 1 ml medium from each well and added 1 ml medium containing DMSO or test compound into the well to achieve the desired final concentration. Mixed well by gentle shaking and incubated for 24 hours.
Day 3. Aspirated media from plates; washed cells with 2 ml 4° C. PBS (Solarbio, P1020-500) and aspirated the PBS. Then added 100 μl 4° C. […] lysis buffer (Boston BioProducts BP-115D) with protease and phosphatase inhibitors at vendor recommended concentrations (Roche 05892791001 and 04906837001) into each well to lyse the cells, and incubated for 20 minutes at 4° C. Cell lysate was collected into 1.5 ml Eppendorf tube, and the lysate was sonicated at 4° C. for 2 minutes (5 second pulse at 30% power with 10 second intermissions). The lysate was centrifuged at 12,000 rpm for 15 minutes at 4° C. The supernatant was transferred to a fresh Eppendorf tube, and protein concentration was quantified using a BCA kit (Solarbio, PC0020-500). Mixed the cell lysate and 5×NuPAGE SDS Loading Buffer (Beyotime, P0015L), and heated at 95° C. for 10 minutes in a heat block. Prepared samples were stored at −80° C. until SDS-PAGE procedure.
Day 4. Loaded 15 μg protein from each sample onto NuPAGE® Novex 4-12% Bis-Tris Midi Gel, 26 W (Invitrogen, WG1403BOX) and ran the gel at 120V for 1.5 hours in 1×NuPAGE® MOPS SDS Running Buffer (Novex, NP0001). Electrotransferred to nitrocellulose membrane using dry transfer method (iBlot 2 Transfer Stacks, nitrocellulose, IB23001) with a program consisting of 20V for 1 minute, 23V for 4 minutes and 25V for 2 minutes. Blocked the membrane with 5% BSA (Solarbio, A8020) in 1×TBST (CST, 9997S) for 1 hour at room temperature. Incubated with KRAS antibody (LSBio, LS-C175665, clone 2C1) at 1:1000 dilution and β-actin antibody at 1:1000 dilution (CST, 4970S) in TBST containing 1% BSA (Solarbio, A8020) at 4° C. overnight.
Day 5. Washed nitrocellulose membrane three times with 1×TBST for 10 minutes each at room temperature. Incubated with fluorescently labeled secondary antibodies at 1:5000 dilution in TBST containing 1% BSA (anti-rabbit IgG, Licor, 926-32211; anti-mouse IgG, LI-COR, 926-68070) for 1 hour at room temperature. Washed membrane three times with TBST, 10 minutes each. Scanned the membrane on LiCOR scanner for fluorescent signal(s) and quantified KRAS bands and β-actin bands for normalization.
The data are reported in Table 2, wherein “A” indicates a DC50 of less than 1 μM; “B” indicates a DC50 of greater than or equal to 1 μM and less than 10 μM; and “C” indicates a DC50 of greater than or equal to 10 μM.
A general note: Immunoblotting shows a protein as a band on a membrane.
Turning to `C#Cc1c(F)ccc2cc(O)cc(-c3ncc4c(N5C[C@H]6CC[C@@H](C5)N6)nc(OC[C@@]56CCCN5[C@H](COC(=O)NCCCCc5ccc7c(c5)n(C)c(=O)n7C5CCC(=O)NC5=O)CC6)nc4c3F)c12` (stereo partly drawn) [Compound 006, ((3S,7aS)-7a-(((4-((1R,5S)-3,8-diazabicyclo[3.2.1]octan-3-yl)-7-(8-ethynyl-7-fluoro-3-hydroxynaphthalen-1-yl)-8-fluoropyrido[4,3-d]pyrimidin-2-yl)oxy)methyl)hexahydro-1H-pyrrolizin-3-yl)methyl (4-(1-(2,6-dioxopiperidin-3-yl)-3-methyl-2-oxo-2,3-dihydro-1H-benzo[d]imidazol-5-yl)butyl)carbamate], the DC50 result was “C (DC50 greater than or equal to 10 μM)”.
As for `C#Cc1c(F)ccc2cc(O)cc(-c3ncc4c(N5CC6CCC(C5)N6)nc(OC[C@@]56CCCN5[C@H](COC(=O)NCCCCCc5cccc7c5n(C)c(=O)n7C5CCC(=O)NC5=O)CC6)nc4c3F)c12` (stereo partly drawn) [Compound 007, [(3S,8S)-8-[[4-(3,8-diazabicyclo[3.2.1]octan-3-yl)-7-(8-ethynyl-7-fluoro-3-hydroxy-1-naphthyl)-8-fluoro-pyrido[4,3-d]pyrimidin-2-yl]oxymethyl]-1,2,3,5,6,7-hexahydropyrrolizin-3-yl]methyl N-[5-[1-(2,6-dioxo-3-piperidyl)-3-methyl-2-oxo-benzimidazol-4-yl]pentyl]carbamate], the DC50 entry is “C (DC50 greater than or equal to 10 μM)”.
As for `C#Cc1c(F)ccc2cc(O)cc(-c3ncc4c(N5C[C@H]6CC[C@@H](C5)N6)nc(OC[C@@]56CCCN5[C@H](COC(=O)NCCCCc5cccc7c5n(C)c(=O)n7C5CCC(=O)NC5=O)CC6)nc4c3F)c12` (stereo partly drawn) [Compound 008, ((3S,7aS)-7a-(((4-((1R,5S)-3,8-diazabicyclo[3.2.1]octan-3-yl)-7-(8-ethynyl-7-fluoro-3-hydroxynaphthalen-1-yl)-8-fluoropyrido[4,3-d]pyrimidin-2-yl)oxy)methyl)hexahydro-1H-pyrrolizin-3-yl)methyl (4-(1-(2,6-dioxopiperidin-3-yl)-3-methyl-2-oxo-2,3-dihydro-1H-benzo[d]imidazol-4-yl)butyl)carbamate], the DC50 result is “B (DC50 greater than or equal to 1 μM and less than 10 μM)”.
Regarding `C#Cc1c(F)ccc2cc(O)cc(-c3ncc4c(N5CC6CCC(C5)N6)nc(OC[C@@]56CCCN5[C@H](COC(=O)NCCCCCCCCCCCc5ccc7c(c5)n(C)c(=O)n7C5CCC(=O)NC5=O)CC6)nc4c3F)c12` (stereo partly drawn) [Compound 009, [(3S,8S)-8-[[4-(3,8-diazabicyclo[3.2.1]octan-3-yl)-7-(8-ethynyl-7-fluoro-3-hydroxy-1-naphthyl)-8-fluoro-pyrido[4,3-d]pyrimidin-2-yl]oxymethyl]-1,2,3,5,6,7-hexahydropyrrolizin-3-yl]methyl N-[11-[1-(2,6-dioxo-3-piperidyl)-3-methyl-2-oxo-benzimidazol-5-yl]undecyl]carbamate], the DC50 entry is given as “A (DC50 less than 1 μM)”.
On to `C#Cc1c(F)ccc2cc(O)cc(-c3ncc4c(N5CC6CCC(C5)N6)nc(OC[C@@]56CCCN5[C@H](COC(=O)NCCCCCCCCCc5ccc7c(c5)n(C)c(=O)n7C5CCC(=O)NC5=O)CC6)nc4c3F)c12` (stereo partly drawn) [Compound 010, [(3S,8S)-8-[[4-(3,8-diazabicyclo[3.2.1]octan-3-yl)-7-(8-ethynyl-7-fluoro-3-hydroxy-1-naphthyl)-8-fluoro-pyrido[4,3-d]pyrimidin-2-yl]oxymethyl]-1,2,3,5,6,7-hexahydropyrrolizin-3-yl]methyl N-[9-[1-(2,6-dioxo-3-piperidyl)-3-methyl-2-oxo-benzimidazol-5-yl]nonyl]carbamate], for which the DC50 entry is recorded as “A (DC50 less than 1 μM)”.
Regarding `C#Cc1c(F)ccc2cc(O)cc(-c3ncc4c(N5CC6CCC(C5)N6)nc(OC[C@@]56CCCN5[C@H](COC(=O)NCCCCCCCCCCCc5cccc7c5n(C)c(=O)n7C5CCC(=O)NC5=O)CC6)nc4c3F)c12` (stereo partly drawn) [Compound 011, [(3S,8S)-8-[[4-(3,8-diazabicyclo[3.2.1]octan-3-yl)-7-(8-ethynyl-7-fluoro-3-hydroxy-1-naphthyl)-8-fluoro-pyrido[4,3-d]pyrimidin-2-yl]oxymethyl]-1,2,3,5,6,7-hexahydropyrrolizin-3-yl]methylN-[11-[1-(2,6-dioxo-3-piperidyl)-3-methyl-2-oxo-benzimidazol-4-yl]undecyl]carbamate], the DC50 result was “A (DC50 less than 1 μM)”.
For `C#Cc1c(F)ccc2cc(O)cc(-c3ncc4c(N5CC6CCC(C5)N6)nc(OC[C@@]56CCCN5[C@H](COC(=O)NCCCCCCCCCc5cccc7c5n(C)c(=O)n7C5CCC(=O)NC5=O)CC6)nc4c3F)c12` (some centres unmarked) [Compound 012], the DC50 entry is given as “A (DC50 less than 1 μM)”.
For the molecule `C#Cc1c(F)ccc2cc(O)cc(-c3ncc4c(N5C[C@H]6CC[C@@H](C5)N6)nc(OC[C@@]56CCCN5[C@H](COC(=O)NCCCCCCCCCCc5ccc7c(c5)n(C)c(=O)n7C5CCC(=O)NC5=O)CC6)nc4c3F)c12` (stereo partly drawn) [Compound 013, ((3S,7aS)-7a-(((4-((1R,5S)-3,8-diazabicyclo[3.2.1]octan-3-yl)-7-(8-ethynyl-7-fluoro-3-hydroxynaphthalen-1-yl)-8-fluoropyrido[4,3-d]pyrimidin-2-yl)oxy)methyl)hexahydro-1H-pyrrolizin-3-yl)methyl (10-(1-(2,6-dioxopiperidin-3-yl)-3-methyl-2-oxo-2,3-dihydro-1H-benzo[d]imidazol-5-yl)decyl) carbamate], the DC50 result was “A (DC50 less than 1 μM)”.
On to `C#Cc1c(F)ccc2cc(O)cc(-c3ncc4c(N5CC6CCC(C5)N6)nc(OC[C@@]56CCCN5[C@H](COC(=O)NCCCCCCCCCCc5cccc7c5n(C)c(=O)n7C5CCC(=O)NC5=O)CC6)nc4c3F)c12` (stereo partly drawn) [Compound 014, [(3S,8S)-8-[[4-(3,8-diazabicyclo[3.2.1]octan-3-yl)-7-(8-ethynyl-7-fluoro-3-hydroxy-1-naphthyl)-8-fluoro-pyrido[4,3-d]pyrimidin-2-yl]oxymethyl]-1,2,3,5,6,7-hexahydropyrrolizin-3-yl]methyl N-[10-[1-(2,6-dioxo-3-piperidyl)-3-methyl-2-oxo-benzimidazol-4-yl]decyl]carbamate], for which the DC50 entry was “A (DC50 less than 1 μM)”.
For `C#Cc1c(F)ccc2cc(O)cc(-c3ncc4c(N5CC6CCC(C5)N6)nc(OC[C@@]56CCCN5[C@H](COC(=O)NCCCCCCCCCCNc5ccc7c(c5)C(=O)N(C5CCC(=O)NC5=O)C7=O)CC6)nc4c3F)c12` (stereo partly drawn) [Compound 015, [(3S,8S)-8-[[4-(3,8-diazabicyclo[3.2.1]octan-3-yl)-7-(8-ethynyl-7-fluoro-3-hydroxy-1-naphthyl)-8-fluoro-pyrido[4,3-d]pyrimidin-2-yl]oxymethyl]-1,2,3,5,6,7-hexahydropyrrolizin-3-yl]methyl N-[10-[[2-(2,6-dioxo-3-piperidyl)-1,3-dioxo-isoindolin-5-yl]amino]decyl]carbamate] the value was “A (DC50 less than 1 μM)”.
`C#Cc1c(F)ccc2cc(O)cc(-c3ncc4c(N5CC6CCC(C5)N6)nc(OC[C@@]56CCCN5[C@H](COC(=O)NCCCCCCCCCNc5cccc7c5C(=O)N(C5CCC(=O)NC5=O)C7=O)CC6)nc4c3F)c12` (stereo partly drawn) [Compound 016, ((3S,7aS)-7a-(((4-(3,8-diazabicyclo[3.2.1]octan-3-yl)-7-(8-ethynyl-7-fluoro-3-hydroxynaphthalen-1-yl)-8-fluoropyrido[4,3-d]pyrimidin-2-yl)oxy)methyl)hexahydro-1H-pyrrolizin-3-yl)methyl (9-((2-(2,6-dioxopiperidin-3-yl)-1,3-dioxoisoindolin-4-yl)amino)nonyl)carbamate]: the DC50 result is “A (DC50 less than 1 μM)”.
